The record followed here is ChEMBL document CHEMBL1201862, “PubChem BioAssay data set” (2004).

For test [1], the target named is T1, Beta-adrenergic receptor kinase 1 (Homo sapiens, UniProt P25098). The test is described as follows: Second cherry pick EC50 of compounds blocking aptamer binding to bead-bound GRK2 by flow cytometry, biochemical (AID 504815).
The target in test [2] is T1, Beta-adrenergic receptor kinase 1. The test is described as follows: aptamer displacement from bead-bound GRK2 – biochemical, cherry pick 1, bead flow cytometry, dose response (AID 504500).
Test [3] concerns the target T2, Carboxy-terminal domain RNA polymerase II polypeptide A small phosphatase 1 (Homo sapiens, UniProt Q9GZU7).
T2 sequence (Q9GZU7 whole entry): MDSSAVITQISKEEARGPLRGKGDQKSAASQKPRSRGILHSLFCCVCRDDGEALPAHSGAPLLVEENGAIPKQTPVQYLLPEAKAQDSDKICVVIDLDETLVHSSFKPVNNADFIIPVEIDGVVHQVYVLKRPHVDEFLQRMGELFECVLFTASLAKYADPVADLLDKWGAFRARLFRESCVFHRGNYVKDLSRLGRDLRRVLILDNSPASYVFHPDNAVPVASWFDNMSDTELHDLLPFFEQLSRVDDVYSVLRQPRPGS
As to the kind of experiment: CTDSP1 inhibitors, concentration-response, biochemical, absorbance readout, ultra-high-throughput screen actives (AID 540297). It is filed as functional.

The nature of test [4]: NIH3T3 cell viability loss – ATP luminescence, mouse fibroblasts, counter-screen, dose response (AID 2010).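 Further: cells exposed to compound for about 90 hours before reading.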 It is filed as functional, cell-based.
Test [5] in a line: NIH-3T3 fibroblast cytotoxicity, dose response, cytotoxicity control, cell-based, fluorescence, Alamar Blue, secondary assay (AID 2327).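 Further: NIH-3T3 mouse fibroblasts cultured with fluconazole at 8 µg/mL.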 It is filed as functional.
The nature of test [6]: cells. It is filed as functional, cell-based.
The nature of test [7]: decrease of insulin promoter-GFP reporter – imaging, high-content screening, mouse beta cells (AID 1628). It is filed as functional. To be noted: MIN6.
The nature of test [8]: loss of viability in HepG2 cells – cell-based, CellTiter-Glo, cherry-picked, cytotoxicity control for Shn3 inhibitor project, dose response (AID 624134). It is filed as functional.
Test [9] can be described thus: fluconazole-exposed Candida albicans growth modulators – fluorescence, retest, confirmation (AID 2467). It is filed as functional, cell-based.
Test [10] has as its system Jurkat. As to the kind of experiment: SAR Analysis of small molecule inhibitors of T-cell specific antigen receptor-induced NF-kB activation in a Jurkat cell line using a luminescence assay - Set 2. [Related pubchem assays (depositor defined):AID435003, AID435012, AID465]. It is filed as functional, cell-based. To be noted: Homo sapiens.
Test [11] relates to HEK293. As to the kind of experiment: SAR Analysis of small molecule inhibitors of T-cell specific antigen receptor-induced NF-kB activation in a HEK-293T cell line using a luminescence assay - Set 2. [Related pubchem assays (depositor defined):AID435003, AID435012, AID489026]. It is filed as functional, cell-based. To be noted: Homo sapiens.
Test [12] can be described thus: cells. It is filed as functional, cell-based. The source holds these as a separate data set.
The nature of test [13]: MIN6 cell viability loss – mouse insulinoma, cytotoxicity control, dose response (AID 2122).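 Further: confirmatory high-throughput counterscreen run to flag cytotoxic compounds.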 It is filed as functional.
In test [14] the target is Heat shock protein HSP 90-alpha (Homo sapiens, UniProt P07900). It is filed as functional, organism-based.
The nature of test [15]: Counterscreen for AddAB inhibitors: absorbance-based bacterial cell-based high throughput dose response assay for inhibitors of bacterial viability. [Related pubchem assays (depositor defined):AID435030, AID449728, AID449731, AID488942, AID488955, AID488956]. It is filed as functional.
The target of test [16] is ATP-dependent molecular chaperone HSP82 (Candida albicans (strain WO-1) (Yeast), UniProt C4YTQ8). As to the kind of experiment: steroid-induced GRE reporter decrease in yeast – S. cerevisiae, luminescence, Hsp90 inhibitor project, dose response (AID 2400).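 Further: beta-galactosidase luminescence from glucocorticoid response element reporter as proxy for Hsp90 function; inhibitor potency where signal loss means Hsp90 inhibition.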 It is filed as functional, cell-based.
Test [17] can be described thus: non-specific 3'UTR reporter inhibition in Clone20-Shn3RL – cell-based, Renilla luciferase, cherry-picked, counter-screen for Shn3 inhibitor project, dose response (AID 624133). It is filed as functional.
For a further test, the system named is INS1. As to the kind of experiment: INS-1E survival protection against cytokine death – cell-based, luminescence, retest, dose response (AID 449756).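 Further: cell death triggered by IL-1 beta plus TNF-alpha plus IFN-gamma mixture; protective hits raise ATP signal compared with cytokine alone wells.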 It is filed as functional. To be noted: Rattus norvegicus.
Test [18] in a line: reduction of Shn3 3'UTR-driven luciferase in osteoblasts – cell-based, Clone20 osteoblasts, firefly luciferase, cherry-picked, dose response (AID 624132).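 Further: firefly luciferase luminescence from reporter carrying the Shn3 3'UTR in osteoblasts.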 It is filed as functional.
The nature of test [19]: Trypanosoma cruzi growth suppression in host cells – NIH3T3 host cells, beta-gal luminescence, confirmation (AID 2044).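 Further: intracellular parasites grown in NIH/3T3 mouse fibroblasts as host cells; luminescent beta-galactosidase reporter signal from transgenic T. cruzi replicating inside host cells; inhibitors lower the luminescence signal.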 It is filed as functional, cell-based.
The target of a further test is Exodeoxyribonuclease V (Escherichia coli (strain K12), UniProt P04993+P07648+P08394). The test is described as follows: RecBCD inhibition via phage-restricted bacterial growth – absorbance, V66 E. coli, mutant T4 phage, counter-screen for AddAB inhibitor project, dose response (AID 492957). It is filed as functional, cell-based, Escherichia coli str. K-12 substr. MG1655.

Test [20] deals with Serine/threonine-protein phosphatase (Candida dubliniensis (strain CD36 / CBS 7987 / NCPF 3949 / NRRLY-17841) (Yeast), UniProt B9W6M3). The test is described as follows: blockers of CaCl2-induced CDRE-lacZ signaling – S. cerevisiae, luminescence, secondary, dose response (AID 2388).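 Further: yeast reporter cells carrying a calcineurin-responsive lacZ construct stimulated with calcium chloride; luminescent beta-galactosidase reporter signal in whole cells rather than isolated phosphatase activity; potency for inhibition where a drop in reporter signal means calcineurin blockade.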 It is filed as functional, cell-based.
Test [21] concerns Jurkat. As to the kind of experiment: SAR Analysis of small molecule inhibitors of T-cell specific antigen receptor-induced NF-kB activation in a Jurkat cell line using a luminescence assay. [Related pubchem assays (depositor defined):AID435003, AID435012, AID465]. It is filed as functional, cell-based. To be noted: Homo sapiens.
Test [22] can be described thus: HEK-293T viability loss after treatment – luminescence, T-cell screen hits, cytotoxicity control for TCR NF-kB inhibitor project, dose response (AID 489026).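 Further: cells exposed to compound about 14 hours before the viability readout.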 It is filed as functional, cell-based.
Test [23] deals with HEK293. The test is described as follows: SAR Analysis of small molecule inhibitors of T-cell specific antigen receptor-induced NF-kB activation in a HEK-293T cell line using a luminescence assay. [Related pubchem assays (depositor defined):AID435003, AID435012, AID489026]. It is filed as functional, cell-based. The conditions noted are these: Homo sapiens.
The target of another test is Cysteine protease ATG4B (Homo sapiens, UniProt Q9Y4P1). It is filed as functional.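 Further: Fluorescence-based dose-response confirmation assay measuring inhibition of ATG4B activity.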
A further test concerns the target Phospholipase A2 (Homo sapiens, UniProt P04054). It is filed as functional.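 Further: confirmatory dose-response counterscreen on phospholipase A2, testing hits that came from an ultra-high-throughput screen for ATG4B inhibitors.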

Activity calls are given as the source filed them.

T1 sequence (P25098 whole entry): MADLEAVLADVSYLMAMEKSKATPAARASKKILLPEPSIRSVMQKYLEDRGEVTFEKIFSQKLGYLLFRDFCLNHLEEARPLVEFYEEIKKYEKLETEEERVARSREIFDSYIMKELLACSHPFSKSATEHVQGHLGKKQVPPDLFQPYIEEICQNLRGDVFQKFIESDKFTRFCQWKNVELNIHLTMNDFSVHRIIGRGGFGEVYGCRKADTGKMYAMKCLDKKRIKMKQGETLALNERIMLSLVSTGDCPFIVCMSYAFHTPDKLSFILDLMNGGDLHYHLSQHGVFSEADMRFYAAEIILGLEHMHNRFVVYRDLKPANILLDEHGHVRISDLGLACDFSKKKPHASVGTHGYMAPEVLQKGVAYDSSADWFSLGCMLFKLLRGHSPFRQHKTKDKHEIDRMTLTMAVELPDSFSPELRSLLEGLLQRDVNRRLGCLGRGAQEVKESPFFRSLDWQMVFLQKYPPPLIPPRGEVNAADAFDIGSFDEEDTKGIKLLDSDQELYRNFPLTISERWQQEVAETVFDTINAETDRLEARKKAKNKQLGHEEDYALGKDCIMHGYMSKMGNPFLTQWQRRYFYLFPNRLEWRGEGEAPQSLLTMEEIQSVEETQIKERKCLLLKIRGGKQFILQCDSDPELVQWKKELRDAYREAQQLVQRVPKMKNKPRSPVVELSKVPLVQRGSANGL
Serine/threonine-protein phosphatase, sequence (B9W6M3 whole entry): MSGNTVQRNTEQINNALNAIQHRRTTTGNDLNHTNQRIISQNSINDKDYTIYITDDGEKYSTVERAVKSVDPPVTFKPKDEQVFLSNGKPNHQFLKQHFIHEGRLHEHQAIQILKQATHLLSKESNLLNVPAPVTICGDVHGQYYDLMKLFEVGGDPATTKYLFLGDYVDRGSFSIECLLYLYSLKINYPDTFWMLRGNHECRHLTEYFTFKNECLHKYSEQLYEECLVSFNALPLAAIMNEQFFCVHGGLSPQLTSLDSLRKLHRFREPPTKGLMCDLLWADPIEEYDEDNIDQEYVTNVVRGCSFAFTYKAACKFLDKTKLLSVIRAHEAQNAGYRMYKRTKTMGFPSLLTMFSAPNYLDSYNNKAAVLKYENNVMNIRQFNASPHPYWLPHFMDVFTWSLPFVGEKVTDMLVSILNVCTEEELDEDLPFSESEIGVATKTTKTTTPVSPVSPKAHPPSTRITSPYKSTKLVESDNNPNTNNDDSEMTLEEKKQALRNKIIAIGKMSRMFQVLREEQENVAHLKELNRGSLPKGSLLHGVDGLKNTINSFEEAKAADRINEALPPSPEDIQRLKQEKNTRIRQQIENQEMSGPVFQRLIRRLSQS
ATP-dependent molecular chaperone HSP82, sequence (C4YTQ8 whole entry): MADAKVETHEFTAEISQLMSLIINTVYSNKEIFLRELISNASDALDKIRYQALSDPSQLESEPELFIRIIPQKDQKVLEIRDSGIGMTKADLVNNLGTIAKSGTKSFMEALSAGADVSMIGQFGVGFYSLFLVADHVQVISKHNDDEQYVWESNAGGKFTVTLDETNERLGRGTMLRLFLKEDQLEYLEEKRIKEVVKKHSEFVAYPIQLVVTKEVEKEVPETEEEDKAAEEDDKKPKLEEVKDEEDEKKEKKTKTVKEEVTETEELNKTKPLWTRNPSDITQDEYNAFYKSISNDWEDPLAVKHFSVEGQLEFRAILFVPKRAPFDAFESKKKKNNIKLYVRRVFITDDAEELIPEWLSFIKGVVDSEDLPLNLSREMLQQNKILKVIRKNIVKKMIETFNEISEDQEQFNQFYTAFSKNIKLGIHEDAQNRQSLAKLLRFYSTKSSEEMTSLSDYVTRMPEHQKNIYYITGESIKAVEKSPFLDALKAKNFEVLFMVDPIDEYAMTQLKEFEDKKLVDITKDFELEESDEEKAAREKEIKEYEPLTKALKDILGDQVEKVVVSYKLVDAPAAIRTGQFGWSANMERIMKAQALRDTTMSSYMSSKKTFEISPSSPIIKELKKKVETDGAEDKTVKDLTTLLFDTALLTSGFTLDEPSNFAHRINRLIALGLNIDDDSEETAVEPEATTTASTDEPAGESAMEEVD
Exodeoxyribonuclease V, sequence (P04993 whole entry): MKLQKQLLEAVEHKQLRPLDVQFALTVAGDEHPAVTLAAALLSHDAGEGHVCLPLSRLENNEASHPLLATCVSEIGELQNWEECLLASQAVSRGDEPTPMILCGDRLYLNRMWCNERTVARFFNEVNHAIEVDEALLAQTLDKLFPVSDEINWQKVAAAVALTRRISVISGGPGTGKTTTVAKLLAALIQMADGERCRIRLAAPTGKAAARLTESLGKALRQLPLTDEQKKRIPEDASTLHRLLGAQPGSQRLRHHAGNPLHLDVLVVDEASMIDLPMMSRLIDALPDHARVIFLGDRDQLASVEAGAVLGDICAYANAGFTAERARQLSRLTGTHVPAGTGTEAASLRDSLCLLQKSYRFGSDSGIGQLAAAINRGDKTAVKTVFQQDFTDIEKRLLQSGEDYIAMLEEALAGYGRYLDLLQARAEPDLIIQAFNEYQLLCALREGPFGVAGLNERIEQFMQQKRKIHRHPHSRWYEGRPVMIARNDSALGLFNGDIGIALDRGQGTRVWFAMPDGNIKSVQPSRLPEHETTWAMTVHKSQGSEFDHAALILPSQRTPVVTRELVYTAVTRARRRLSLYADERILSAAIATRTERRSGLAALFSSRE
Exodeoxyribonuclease V, sequence (P07648 whole entry): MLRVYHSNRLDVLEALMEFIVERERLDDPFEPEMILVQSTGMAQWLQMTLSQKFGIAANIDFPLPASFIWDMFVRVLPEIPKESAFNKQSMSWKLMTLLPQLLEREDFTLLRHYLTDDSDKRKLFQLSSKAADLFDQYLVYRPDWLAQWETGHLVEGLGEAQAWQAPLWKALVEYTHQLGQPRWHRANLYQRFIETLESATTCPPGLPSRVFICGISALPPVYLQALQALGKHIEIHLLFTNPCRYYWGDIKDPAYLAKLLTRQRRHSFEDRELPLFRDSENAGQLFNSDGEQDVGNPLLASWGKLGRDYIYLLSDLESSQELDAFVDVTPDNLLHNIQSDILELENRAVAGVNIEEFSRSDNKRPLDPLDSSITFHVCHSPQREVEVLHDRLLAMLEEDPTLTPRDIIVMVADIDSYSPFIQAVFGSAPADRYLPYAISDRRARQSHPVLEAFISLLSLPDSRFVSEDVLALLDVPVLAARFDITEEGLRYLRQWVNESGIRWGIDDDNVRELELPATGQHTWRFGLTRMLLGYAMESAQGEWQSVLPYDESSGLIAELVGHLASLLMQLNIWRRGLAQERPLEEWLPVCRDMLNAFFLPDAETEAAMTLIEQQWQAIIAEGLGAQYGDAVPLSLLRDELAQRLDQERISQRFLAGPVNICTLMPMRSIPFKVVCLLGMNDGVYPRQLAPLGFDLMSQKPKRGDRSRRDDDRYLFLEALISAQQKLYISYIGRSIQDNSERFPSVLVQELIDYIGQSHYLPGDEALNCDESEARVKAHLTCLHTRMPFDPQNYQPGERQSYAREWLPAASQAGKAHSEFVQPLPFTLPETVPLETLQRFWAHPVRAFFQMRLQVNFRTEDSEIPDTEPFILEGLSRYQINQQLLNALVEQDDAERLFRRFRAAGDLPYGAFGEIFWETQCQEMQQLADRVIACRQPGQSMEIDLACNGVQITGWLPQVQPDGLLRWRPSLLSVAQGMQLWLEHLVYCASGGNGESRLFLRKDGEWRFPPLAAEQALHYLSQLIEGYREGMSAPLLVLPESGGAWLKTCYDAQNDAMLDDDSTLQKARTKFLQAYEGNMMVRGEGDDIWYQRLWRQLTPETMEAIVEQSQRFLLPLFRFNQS
Exodeoxyribonuclease V, sequence (P08394 whole entry): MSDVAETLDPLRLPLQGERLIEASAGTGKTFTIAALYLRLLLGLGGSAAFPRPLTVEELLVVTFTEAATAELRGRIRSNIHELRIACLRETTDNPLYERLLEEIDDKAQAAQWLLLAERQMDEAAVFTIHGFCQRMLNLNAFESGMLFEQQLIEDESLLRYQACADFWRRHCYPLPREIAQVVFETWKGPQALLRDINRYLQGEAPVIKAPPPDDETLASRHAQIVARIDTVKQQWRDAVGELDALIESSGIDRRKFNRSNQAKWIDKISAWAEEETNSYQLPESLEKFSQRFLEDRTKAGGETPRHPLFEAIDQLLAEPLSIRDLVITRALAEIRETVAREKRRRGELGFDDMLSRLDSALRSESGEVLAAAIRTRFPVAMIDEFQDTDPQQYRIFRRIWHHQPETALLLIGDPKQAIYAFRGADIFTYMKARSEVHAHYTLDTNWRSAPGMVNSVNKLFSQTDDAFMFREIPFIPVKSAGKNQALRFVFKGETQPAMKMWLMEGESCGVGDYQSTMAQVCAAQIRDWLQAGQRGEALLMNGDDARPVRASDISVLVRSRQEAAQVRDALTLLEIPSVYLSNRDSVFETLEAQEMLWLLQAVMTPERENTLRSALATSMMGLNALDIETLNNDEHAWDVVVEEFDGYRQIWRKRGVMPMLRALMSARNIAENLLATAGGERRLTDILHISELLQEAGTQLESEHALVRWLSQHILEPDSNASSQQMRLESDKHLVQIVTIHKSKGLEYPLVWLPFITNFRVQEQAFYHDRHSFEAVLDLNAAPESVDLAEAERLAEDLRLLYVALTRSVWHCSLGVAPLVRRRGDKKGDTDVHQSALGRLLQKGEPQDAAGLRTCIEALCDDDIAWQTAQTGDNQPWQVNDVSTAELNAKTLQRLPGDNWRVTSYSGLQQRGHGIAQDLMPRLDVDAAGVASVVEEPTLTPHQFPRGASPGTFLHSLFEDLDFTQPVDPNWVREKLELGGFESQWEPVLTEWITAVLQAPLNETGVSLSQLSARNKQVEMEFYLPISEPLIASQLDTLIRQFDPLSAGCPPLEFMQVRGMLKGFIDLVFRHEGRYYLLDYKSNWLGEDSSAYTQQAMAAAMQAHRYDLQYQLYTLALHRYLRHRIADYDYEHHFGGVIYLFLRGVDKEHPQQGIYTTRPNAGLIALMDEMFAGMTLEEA
Phospholipase A2, sequence (P04054 whole entry): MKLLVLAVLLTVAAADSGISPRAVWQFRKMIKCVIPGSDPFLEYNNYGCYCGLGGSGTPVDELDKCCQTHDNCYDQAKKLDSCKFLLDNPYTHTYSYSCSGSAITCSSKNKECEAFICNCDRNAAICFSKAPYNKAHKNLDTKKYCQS

In the case of `CCc1cccc(NC(=O)CCS(=O)(=O)c2ccc(Br)cc2)c1`, the 50% effective concentration (EC50) in test [1] is 6.25 µM (active); in [2], 58.3 µM (inactive). For the same compound, the IC50 in test [3] was 6.99 µM (active).
On to `CCCC(=O)NC(c1ccc(OC)cc1)c1ccc2cccnc2c1O` (configuration not stated), for which the 50% effective concentration (EC50) is 1.4 µM (active) in test [4]; 41.4 µM (active) in test [5]; > 350 µM (not active) in “cells [6]”; 0.349 µM (active) in [9]; 6.31 µM (active) in “cells [12]”; > 160 µM (inactive) in test [16]. In addition, the EC50 is 0.527 µM (active) in test [19] and > 180 µM (inactive) in test [20]. For the same compound, the concentration for half-maximal inhibition (IC50) was 1.23 µM (active) in [7]; 3.11 µM (active) in the test on Jurkat [10]; 3.64 µM (active) with HEK293 [11]; 1.52 µM (active) in [13]; > 119 µM (inactive) in [15]; > 119 µM (inactive) on Exodeoxyribonuclease V. Moreover, the figures for the half-maximal inhibitory concentration (IC50) (in the test with Jurkat [21]; in test [22]; in the test with HEK293 [23]) were 2.96 µM (active), > 80 µM (inactive) and 4.92 µM (active), respectively. In addition, the concentration at half-maximal activity (AC50) in test [8] was 2.33 µM (active); in test [14] it was 4.08 µM (active); in [17], 1.08 µM (active); with INS1, 0.696 µM (active); in test [18], 1.18 µM (active).
On to `CCCCCCCCCCCCCCCCCCNc1ccn(C2OC(COP(=O)(O)OCC3OC(n4cc(F)c(=O)[nH]c4=O)CC3O)C(O)C2O)c(=O)n1` (configuration not stated), for which the 50% inhibitory concentration (IC50) on Cysteine protease ATG4B was 10.8 µM (active); on Phospholipase A2 it was 9.09 µM (active).
